Earlier results, collected in US20210135109A1, “ACCELERATED THERMAL CROSSLINKING OF PVDF-HFP VIA ADDITION OF ORGANIC BASES, AND THE USAGE OF CROSSLINKED PVDF-HFP AS GATE DIELECTRIC MATERIAL FOR OTFT DEVICES” (priority 2017, published 2021).

Conditions: water (measured in water unless otherwise specified)

NCCCCCCN [HMDA, Hexamethylenediamine]
pKa (25° C., 1 atm): 10.92 ± 0.10
